Laboratory results taken from article PMC7681098 (Theranostics, 2021).
Read-outs that look alike come from different tables or passages of the source.

Tests used:
[1] = tested on: BaF3-transfected cells (FLT3-ITD-N676D, FLT3-ITD-F691L); test: Intravenous implantation of BaF3-transfected cells, survival; format: in vivo, BALB/c nude mice; conditions: 10 mg/kg once every other day, 8 cycles
Method: Data were shown as mean±SD. […] Data were shown as mean±SD. (C) An engrafted tumor model was used to evaluate in vivo antitumor activity. The NOD/SCID mice were intravenously inoculated with MV4-11 cells. […] Log-rank testing was used to compare survival curves among treatment groups. […] (D) Apoptotic assays in engraft model were evaluated by TUNEL assay and cell proliferative activity was measured by Ki67 assay. Images were acquired at ×40 magnification. (E) BALB/c nude mice were subcutaneously inoculated with MV4-11 cells (5×10^6) and bodyweight of each mouse was recorded every other day. (F) Representative photo of tumors from BALB/c nude mice which were inoculated with MV4-11 cells. (G) BALB/c nude mice were subcutaneously inoculated with BaF3 cells bearing FLT3-ITD-N676D (n=6) and FLT3-ITD-F691L (n=6) respectively. […] (H) BALB/c mice were intravenously inoculated with cells used in (G). […] Log-rank testing was used to compare survival curves among treatment groups. […] (I) Representative photos of spleens dissected from mice in (H) inoculated with BaF3 cells bearing FLT-3-ITD-F691L.
Cells were injected into the tail vein of BALB/c nude mice and allowed to engraft for 5 days. […] This schedule was repeated for 8 cycles.

JAK3 = target: T1, JAK3 (Homo sapiens, UniProt P52333); test: Kinase inhibition assay (Reaction Biology); format: biochemical
T1 construct: purchased Reaction Biology Corporation (PA, USA)
T1 sequence (P52333 whole entry): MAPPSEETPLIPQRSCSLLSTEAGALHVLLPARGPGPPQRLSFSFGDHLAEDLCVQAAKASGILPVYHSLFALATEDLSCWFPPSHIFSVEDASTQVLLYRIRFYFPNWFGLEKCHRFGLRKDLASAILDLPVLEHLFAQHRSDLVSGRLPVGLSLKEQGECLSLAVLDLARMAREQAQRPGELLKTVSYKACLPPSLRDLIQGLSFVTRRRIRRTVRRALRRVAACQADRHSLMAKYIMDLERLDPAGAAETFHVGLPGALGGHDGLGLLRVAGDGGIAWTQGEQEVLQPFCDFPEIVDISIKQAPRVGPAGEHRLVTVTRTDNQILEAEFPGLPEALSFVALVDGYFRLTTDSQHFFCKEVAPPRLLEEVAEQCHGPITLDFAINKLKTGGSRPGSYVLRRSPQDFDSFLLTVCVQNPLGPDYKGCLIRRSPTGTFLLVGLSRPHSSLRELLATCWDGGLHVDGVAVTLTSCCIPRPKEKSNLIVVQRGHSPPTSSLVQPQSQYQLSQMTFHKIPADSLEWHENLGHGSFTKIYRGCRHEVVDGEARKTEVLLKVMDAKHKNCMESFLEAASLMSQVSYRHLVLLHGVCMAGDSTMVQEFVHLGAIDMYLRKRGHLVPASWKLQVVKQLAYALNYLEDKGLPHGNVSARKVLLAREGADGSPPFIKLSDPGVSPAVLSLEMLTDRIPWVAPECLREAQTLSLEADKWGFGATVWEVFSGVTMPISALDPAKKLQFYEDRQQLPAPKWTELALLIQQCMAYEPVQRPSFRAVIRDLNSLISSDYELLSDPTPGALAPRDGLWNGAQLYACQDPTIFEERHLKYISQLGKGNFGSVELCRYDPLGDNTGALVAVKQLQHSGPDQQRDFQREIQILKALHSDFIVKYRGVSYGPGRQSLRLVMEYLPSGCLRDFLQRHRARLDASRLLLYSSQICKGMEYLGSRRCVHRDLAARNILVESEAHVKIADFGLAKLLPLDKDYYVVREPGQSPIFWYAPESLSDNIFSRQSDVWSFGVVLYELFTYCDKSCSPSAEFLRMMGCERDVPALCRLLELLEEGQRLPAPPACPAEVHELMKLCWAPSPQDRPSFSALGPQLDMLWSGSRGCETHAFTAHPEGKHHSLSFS

FLT3 = target: T2, FLT3 (Homo sapiens, UniProt P36888); test: Biolayer interferometry (BLI) binding assay; conditions: ForteBio Octet, 0.3 nM to 1000 nM
T2 construct: The intracellular domain of FLT3 (residues 571-994) was cloned into pMal-c2X; MBP (N); made in house; host or cells: E. coli BL21
T2 sequence (P36888 571-993 limits assumed): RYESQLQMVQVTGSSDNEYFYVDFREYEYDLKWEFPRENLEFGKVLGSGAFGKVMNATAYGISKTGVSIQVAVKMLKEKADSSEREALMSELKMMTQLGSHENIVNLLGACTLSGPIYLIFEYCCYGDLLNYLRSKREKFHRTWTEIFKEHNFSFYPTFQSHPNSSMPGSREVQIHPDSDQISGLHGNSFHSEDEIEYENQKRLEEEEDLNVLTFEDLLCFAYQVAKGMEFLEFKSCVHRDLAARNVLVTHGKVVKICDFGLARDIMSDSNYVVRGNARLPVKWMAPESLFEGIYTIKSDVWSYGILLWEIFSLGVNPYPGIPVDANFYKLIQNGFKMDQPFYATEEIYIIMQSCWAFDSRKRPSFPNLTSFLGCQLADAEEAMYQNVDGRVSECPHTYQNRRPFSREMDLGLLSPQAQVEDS
Method: The intracellular domain of FLT3 (residues 571-994) was cloned into pMal-c2X containing an N-terminal MBP-tag with a TEV protease cleavage site. The recombinant vector was transformed into E. coli. BL21. Expression and purification of recombinant FLT3 were performed as described previously [25]-[27].
All studies were performed with the Super Streptavidin (SSA) biosensors (CA, USA). All binding experiments were performed according to the manufacturer's instructions. For the cellular thermal shift assay (CETSA), experiments were performed as described previously.
A concentration range from 0.3 nM to 1000 nM was defined (Figure 1B). […] CETSA has been used to identify FLT3-LT-171-861 interactions in live cell settings. […] We first verified that the inhibitor could stabilize FLT3 against denaturation using Western blot. […] An obvious thermal shift of the melting curve was detected in the LT-171-861-treated sample (Figure 1C). […] Accordingly, we identified 53 °C as the optimal temperature for isothermal […] fingerprint (ITDRF) CETSA.
(A) Chemical structure of LT-171-861. […] Data were then fitted to obtain KD value. […] Data were first normalized by setting the highest and lowest value in each set to 100% and 0% respectively. […] Cell viability was evaluated by MTT assay respectively. The IC50 values were calculated using nonlinear regression.

[2] = tested on: BaF3 cells with FLT3-ITD/N676D; test: Cell viability of transformed BaF3 cells; format: cell-based, murine; conditions: Mus musculus, read-out: BaF3 cells with FLT3 mutants IC50 ITD-N676D
Method: (§1) Lentivirus packaging and construction of transformed BaF3 cells were performed as described previously. […] Supernatants were collected and used to infect BaF3 cells, and transduced BaF3 cells were selected with puromycin (1 μg/ml) to obtain stably transformed cells.
(§2) The conditional medium (CM) was prepared from the supernatant of HS-5 cell culture for 5 days under normal culture conditions. At the indicated time point, cell viability was evaluated by MTT assay.

[3] = tested on: BaF3 cells with FLT3-D835Y; test: Cell viability of transformed BaF3 cells; format: cell-based, murine; conditions: Mus musculus, read-out: BaF3 cells with FLT3 mutants IC50 D835Y
Method: as §1, §2

[4] = tested on: BaF3 cells with FLT3-ITD/D835Y; test: Cell viability of transformed BaF3 cells; format: cell-based, murine
Method: as §1, §2

[5] = tested on: BaF3 cells with FLT3-ITD/Y842C; test: Cell viability of transformed BaF3 cells; format: cell-based, murine; conditions: Mus musculus, read-out: BaF3 cells with FLT3 mutants IC50 ITD-Y842C
Method: as §1, §2

BaF3 cells with FLT3-ITD = test: Cell viability of transformed BaF3 cells; format: cell-based, murine; conditions: Mus musculus, read-out: BaF3 cells with FLT3 mutants IC50 ITD
Method: as §1, §2

[6] = tested on: BaF3 cells with FLT3-ITD/F691L; test: Cell viability of transformed BaF3 cells; format: cell-based, murine; conditions: Mus musculus, read-out: BaF3 cells with FLT3 mutants IC50 ITD-F691L
Method: as §1, §2

MOLM13 cells = test: Stroma-protecting model: proliferation in HS-5 conditional medium or normal medium; format: cell-based; conditions: Homo sapiens, MOLM-13, 72 h, MTT
Method: At the indicated time point, cell viability was evaluated by MTT assay.
(A) Indicated FLT3 mutations were expressed in BaF3 cells respectively. […] The autophosphorylation level of FLT3 was visualized and compared by western blot analysis. […] The CM was prepared from HS-5 cell culture for 4 days under routine culture conditions, clarified by centrifugation, and used immediately. The CM was added to complete medium at a final concentration of 40%. Cell viabilities were measured by MTT assay. Data were shown as mean±SD. […] The FLT3 phosphorylation levels of FLT3, STAT5 and ERK 1/2 were determined by Western blot.
On the other hand, the bone marrow stroma-protecting environment containing a number of cytokines (e.g. FLT3 ligand, stromal derived factor-1, etc) could also decrease the drug efficacy of FLT3 inhibitors by activating FLT3 or its downstream effectors and building cross-talk between leukemic blasts and bone marrow microenvironment, [35].

FLT4/VEGFR3 = target: T3, FLT4/VEGFR3 (Homo sapiens, UniProt P35916); test: Kinase inhibition assay (Reaction Biology); format: biochemical
T3 construct: purchased Reaction Biology Corporation (PA, USA)
T3 sequence (P35916 25-1363): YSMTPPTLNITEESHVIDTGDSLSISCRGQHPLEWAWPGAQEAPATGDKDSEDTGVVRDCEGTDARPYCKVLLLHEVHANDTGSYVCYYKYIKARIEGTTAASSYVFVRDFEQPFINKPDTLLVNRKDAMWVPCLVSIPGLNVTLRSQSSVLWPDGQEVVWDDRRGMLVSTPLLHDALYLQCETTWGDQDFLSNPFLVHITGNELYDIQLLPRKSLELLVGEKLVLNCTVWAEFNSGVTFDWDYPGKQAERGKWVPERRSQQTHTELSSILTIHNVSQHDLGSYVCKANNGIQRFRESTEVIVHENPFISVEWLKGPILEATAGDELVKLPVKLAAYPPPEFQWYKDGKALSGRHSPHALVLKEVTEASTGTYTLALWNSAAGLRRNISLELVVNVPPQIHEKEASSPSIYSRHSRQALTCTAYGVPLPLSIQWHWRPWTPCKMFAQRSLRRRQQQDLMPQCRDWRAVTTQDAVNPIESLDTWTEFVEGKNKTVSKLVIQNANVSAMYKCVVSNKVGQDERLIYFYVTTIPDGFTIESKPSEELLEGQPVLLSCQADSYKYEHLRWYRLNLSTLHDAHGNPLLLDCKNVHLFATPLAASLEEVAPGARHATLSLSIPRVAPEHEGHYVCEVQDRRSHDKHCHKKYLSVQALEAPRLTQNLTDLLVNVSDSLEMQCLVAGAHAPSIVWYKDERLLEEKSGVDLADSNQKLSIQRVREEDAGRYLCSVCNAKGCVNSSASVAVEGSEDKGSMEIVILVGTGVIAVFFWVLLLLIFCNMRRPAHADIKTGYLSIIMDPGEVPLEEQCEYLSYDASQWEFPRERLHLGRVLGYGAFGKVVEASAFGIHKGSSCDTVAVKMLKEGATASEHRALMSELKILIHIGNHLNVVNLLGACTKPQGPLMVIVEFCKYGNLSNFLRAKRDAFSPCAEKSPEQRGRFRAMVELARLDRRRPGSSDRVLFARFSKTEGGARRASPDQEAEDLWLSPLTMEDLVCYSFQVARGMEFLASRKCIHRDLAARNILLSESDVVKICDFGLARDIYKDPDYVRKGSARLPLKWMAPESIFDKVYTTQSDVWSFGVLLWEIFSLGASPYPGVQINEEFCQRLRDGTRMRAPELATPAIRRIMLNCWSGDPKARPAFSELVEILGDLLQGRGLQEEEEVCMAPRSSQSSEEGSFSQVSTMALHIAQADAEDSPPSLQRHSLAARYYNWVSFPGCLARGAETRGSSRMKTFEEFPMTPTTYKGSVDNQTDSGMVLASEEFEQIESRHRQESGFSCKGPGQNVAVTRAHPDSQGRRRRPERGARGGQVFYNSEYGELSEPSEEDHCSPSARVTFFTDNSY

CN1CCN(Cc2ccc(NC(=O)c3n[nH]cc3Nc3ncnc4[nH]ccc34)cc2)CC1 [LT-171-861]
survival versus vehicle [1]: significant survival advantage
IC50 (JAK3): 0.0326 µM
Kd (FLT3): 0.00331 µM
IC50 [2]: 0.0475 µM
IC50 [3]: 0.0233 µM
IC50 lower than that of sorafenib in cells bearing ITD-D835Y mutations ([4]; BaF3 FLT3-ITD-D835Y): ~16 fold
IC50 ([4]; Mus musculus, BaF3, cell viability, read-out: BaF3 cells with FLT3 mutants IC50 ITD-D835Y): 0.0572 µM
IC50 [5]: 0.0188 µM
IC50 (BaF3 cells with FLT3-ITD): 0.0041 µM
IC50 [6]: 0.00765 µM
IC50 (MOLM13 cells; HS-5 conditional medium (CM) 40%, read-out: IC50 proliferation of MOLM13 cells in CM): 0.0247 µM
IC50 (MOLM13 cells; normal medium (NM), read-out: IC50 proliferation of MOLM13 cells in NM): 0.0199 µM
IC50 (FLT4/VEGFR3): 0.00124 µM
